Key:
Type in all cases: cell-based, human
[1] = system: IgE bound to FcεR1 on pDCs; experiment: Removal of membrane-bound IgE from purified pDCs; settings: pDCs from atopic donors, IL-3, 5, 10 and mg/mL of Oma, 24 hours
Experimental: (§1) A) Left: Frequency of FcεR1α-bound IgE+ cells gated in pDCs. Right: Frequency of cells with unoccupied FcεR1, gated in pDCs (n=4). B) Viability of pDCs after 24 hours incubation with Oma (n=2). Values are given as mean±SEM. **p<0.01, *p<0.05 in paired t-test comparing multiple conditions.

pDCs [2] = experiment: Viability of pDCs after incubation with Oma; settings: 24 hours incubation with Oma
Experimental: as §1

pDCs [3] = experiment: Cytokine signature of TLR9-L-activated pDCs under IgE-FcεR1-crosslinker (ELISA); settings: omalizumab 10 mg/mL 24 hours prior to crosslinker and TLR9-L, ELISA 24 hours after activation, compared to crosslinker condition
Experimental: Then, the cytokine profile was analysed by ELISA 24 hours after activation.

[4] = system: pDCs cocultured with naïve CD4+ T cells; experiment: Generation of Treg cells by pDCs: omalizumab in comparison to corticosteroids; settings: 5 or 10 mg/mL of omalizumab for 24 hours before crosslinker and TLR9-L; coculture 5 days
Experimental: After 24 hours, the pDCs were washed and cocultured with naïve CD4+ T cells for 5 days.

[5] = system: pDCs cocultured with naïve CD4+ T cells; experiment: Blocking experiments (IDO, PD-L1, IFN-α) on Treg cells generation by pDCs in coculture; settings: added to the coculture; p=0.07
From the text: Additionally, it is claimed that IFN-α itself induces the generation of Treg cells.

IgE bound to FcεR1 on pDCs, sequence (P01854 1-428 isoform P01854-1): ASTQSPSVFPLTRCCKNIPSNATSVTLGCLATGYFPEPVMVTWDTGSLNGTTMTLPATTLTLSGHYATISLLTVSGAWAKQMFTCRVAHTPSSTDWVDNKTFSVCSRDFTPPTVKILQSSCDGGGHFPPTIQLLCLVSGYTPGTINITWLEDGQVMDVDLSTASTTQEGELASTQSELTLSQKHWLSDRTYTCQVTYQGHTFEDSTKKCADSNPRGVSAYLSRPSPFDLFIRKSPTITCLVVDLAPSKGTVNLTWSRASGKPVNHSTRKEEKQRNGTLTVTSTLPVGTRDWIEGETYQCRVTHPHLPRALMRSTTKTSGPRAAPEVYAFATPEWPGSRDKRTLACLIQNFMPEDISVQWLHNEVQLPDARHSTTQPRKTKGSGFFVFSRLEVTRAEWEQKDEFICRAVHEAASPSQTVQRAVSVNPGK

Row | Compound | IgE bound to FcεR1 on pDCs (IgE mean fluorescence intensity, MFI) [1] | frequency of pDCs with FcεR1-bound IgE (FcεR1+IgE+pDCs) [1] | levels of pDCs with unoccupied FcεR1 (FcεR1+IgE-pDCs) [1] | pDCs viability (pDCs [2]) | TNF-α levels (pDCs [3]; p=0.04) | pDCs capacity to produce IFN-α (pDCs [3]; p=0.05) | crosslinker-induced decrease of the frequency of induced Treg cells [4] | pDCs capacity to induce Treg cells under IgE-FcεR1-crosslinker condition [5]
1 | Omalizumab: recombinant DNA-derived humanized monoclonal antibody that selectively binds to free, circulating human immunoglobulin E (IgE) | decrease in IgE mean fluorescence intensity (MFI) in a dose-dependent manner | significant reduction | increased levels | did not affect pDCs viability | retained low TNF-α levels | restored pDCs capacity to produce IFN-α | reverted by Omalizumab in a dose dependent manner | 
2 | Nc1ccccc1C(=O)CC(N)C(=O)O (centres unmarked) [kyn, kynurenine] |  |  |  |  |  |  |  | increased

Reference: patent US20220340687A1 (NOVARTIS AG, priority 2019, published 2022)
